Test results as given in the NIST ThermoML archive (doi:10.1016/j.jct.2010.11.014).
Numbers after ± are expanded uncertainties.

Legend:
[1] = molar heat capacity at constant pressure; xn = mol fraction of the nth substance listed; details: 101.3 kPa, Liquid, Adiabatic Solution Calorimetry
[2] = excess molar enthalpy (molar enthalpy of mixing); xn = mol fraction of the nth substance listed; details: 298.15 K, 101.3 kPa, Liquid, Adiabatic Solution Calorimetry

Compound	molar heat capacity at constant pressure ([1]; 298.15 K, x1 = 0.2) [J/K/mol]	molar heat capacity at constant pressure ([1]; 298.15 K, x1 = 0.4) [J/K/mol]	molar heat capacity at constant pressure ([1]; 298.15 K, x1 = 0.6) [J/K/mol]	molar heat capacity at constant pressure ([1]; 298.15 K, x1 = 0.8) [J/K/mol]	molar heat capacity at constant pressure ([1]; 298.15 K, x1 = 1) [J/K/mol]	molar heat capacity at constant pressure ([1]; 303.15 K, x1 = 0.2) [J/K/mol]	molar heat capacity at constant pressure ([1]; 303.15 K, x1 = 0.4) [J/K/mol]	molar heat capacity at constant pressure ([1]; 303.15 K, x1 = 0.6) [J/K/mol]	molar heat capacity at constant pressure ([1]; 303.15 K, x1 = 0.8) [J/K/mol]	molar heat capacity at constant pressure ([1]; 303.15 K, x1 = 1) [J/K/mol]	molar heat capacity at constant pressure ([1]; 313.15 K, x1 = 0.2) [J/K/mol]	molar heat capacity at constant pressure ([1]; 313.15 K, x1 = 0.4) [J/K/mol]	molar heat capacity at constant pressure ([1]; 313.15 K, x1 = 0.6) [J/K/mol]	molar heat capacity at constant pressure ([1]; 313.15 K, x1 = 0.8) [J/K/mol]	molar heat capacity at constant pressure ([1]; 313.15 K, x1 = 1) [J/K/mol]	molar heat capacity at constant pressure ([1]; 323.15 K, x1 = 0.2) [J/K/mol]	molar heat capacity at constant pressure ([1]; 323.15 K, x1 = 0.4) [J/K/mol]	molar heat capacity at constant pressure ([1]; 323.15 K, x1 = 0.6) [J/K/mol]	molar heat capacity at constant pressure ([1]; 323.15 K, x1 = 0.8) [J/K/mol]	molar heat capacity at constant pressure ([1]; 323.15 K, x1 = 1) [J/K/mol]	other results
CCn1cc[n+](C)c1.COP(=O)([O-])OC [1-ethyl-3-methylimidazolium dimethylphosphate] + CCO	153.21 ± 38	220.84 ± 55	272.51 ± 72	324.35 ± 90	329.37 ± 110	171.31 ± 38	235.29 ± 55	289.67 ± 72	348.58 ± 90	346.23 ± 110	205.63 ± 38	282.28 ± 55	340.78 ± 72	404 ± 90	381.64 ± 110	258.83 ± 38	335.32 ± 55	398.34 ± 72	448.05 ± 90	411.74 ± 110	excess molar enthalpy ([2]; x1 = 0.15): -0.428 ± 0.0206 kcal/mol; excess molar enthalpy ([2]; x1 = 0.31): -0.656 ± 0.0206 kcal/mol; excess molar enthalpy ([2]; x1 = 0.47): -0.57 ± 0.0206 kcal/mol; excess molar enthalpy ([2]; x1 = 0.59): -0.522 ± 0.0206 kcal/mol; excess molar enthalpy ([2]; x1 = 0.8): -0.286 ± 0.0203 kcal/mol
CCn1cc[n+](C)c1.COP(=O)([O-])OC [1-ethyl-3-methylimidazolium dimethylphosphate] + CO	147.03 ± 28	–	–	–	329.37 ± 91	163.64 ± 28	–	–	–	346.23 ± 91	215.28 ± 28	–	–	–	381.64 ± 91	252.08 ± 28	–	–	–	411.74 ± 91	molar heat capacity at constant pressure ([1]; 298.15 K, x1 = 0.41): 213.84 ± 44 J/K/mol; molar heat capacity at constant pressure ([1]; 298.15 K, x1 = 0.59): 269.26 ± 59 J/K/mol; molar heat capacity at constant pressure ([1]; 298.15 K, x1 = 0.77): 297.59 ± 73 J/K/mol; molar heat capacity at constant pressure ([1]; 303.15 K, x1 = 0.41): 229.84 ± 44 J/K/mol; molar heat capacity at constant pressure ([1]; 303.15 K, x1 = 0.59): 289.07 ± 59 J/K/mol; molar heat capacity at constant pressure ([1]; 303.15 K, x1 = 0.77): 306.37 ± 73 J/K/mol; molar heat capacity at constant pressure ([1]; 313.15 K, x1 = 0.41): 271.99 ± 44 J/K/mol; molar heat capacity at constant pressure ([1]; 313.15 K, x1 = 0.59): 337.82 ± 59 J/K/mol; molar heat capacity at constant pressure ([1]; 313.15 K, x1 = 0.77): 334.16 ± 73 J/K/mol; molar heat capacity at constant pressure ([1]; 323.15 K, x1 = 0.41): 312.33 ± 44 J/K/mol; molar heat capacity at constant pressure ([1]; 323.15 K, x1 = 0.59): 370.93 ± 59 J/K/mol; molar heat capacity at constant pressure ([1]; 323.15 K, x1 = 0.77): 371.12 ± 73 J/K/mol; excess molar enthalpy ([2]; x1 = 0.1): -0.376 ± 0.043 kcal/mol; excess molar enthalpy ([2]; x1 = 0.3): -0.803 ± 0.043 kcal/mol; excess molar enthalpy ([2]; x1 = 0.5): -0.801 ± 0.043 kcal/mol; excess molar enthalpy ([2]; x1 = 0.65): -0.62 ± 0.043 kcal/mol; excess molar enthalpy ([2]; x1 = 0.79): -0.435 ± 0.043 kcal/mol
CCn1cc[n+](C)c1.COP(=O)([O-])OC [1-ethyl-3-methylimidazolium dimethylphosphate] + O	–	167.14 ± 31	224.66 ± 43	279.14 ± 56	329.37 ± 69	–	176.74 ± 31	242.41 ± 43	288.72 ± 56	346.23 ± 69	–	203.5 ± 31	276.49 ± 43	323.78 ± 56	381.64 ± 69	–	228.82 ± 31	304.05 ± 43	352.68 ± 56	411.74 ± 69	molar heat capacity at constant pressure ([1]; 298.15 K, x1 = 0.18): 119.02 ± 17 J/K/mol; molar heat capacity at constant pressure ([1]; 303.15 K, x1 = 0.18): 125.02 ± 17 J/K/mol; molar heat capacity at constant pressure ([1]; 313.15 K, x1 = 0.18): 134.91 ± 17 J/K/mol; molar heat capacity at constant pressure ([1]; 323.15 K, x1 = 0.18): 148.41 ± 17 J/K/mol; excess molar enthalpy ([2]; x1 = 0.18): -1.26 ± 0.0287 kcal/mol; excess molar enthalpy ([2]; x1 = 0.31): -1.51 ± 0.0287 kcal/mol; excess molar enthalpy ([2]; x1 = 0.45): -1.44 ± 0.0287 kcal/mol; excess molar enthalpy ([2]; x1 = 0.64): -1.15 ± 0.0287 kcal/mol; excess molar enthalpy ([2]; x1 = 0.82): -0.604 ± 0.0287 kcal/mol
